One data set concerns H22. Kind of data set: Antitumor activity against mouse H22 cells allografted in ICR mouse assessed as tumor growth inhibition at 20 mg/kg, iv qd for 17 days consecutively relative to control. It counts as functional. As to conditions: time 17 day, read-out: TGI.
The test system of a further data set is K562. Kind of data set: Antiproliferative activity against human K562 cells incubated for 72 hrs by MTT assay. As to conditions: K562, 72 h. In kind it is functional, cell-based.
The next data set relates to B16-F10. Kind of data set: Antiproliferative activity against mouse B16-F10 cells incubated for 72 hrs by MTT assay. In kind it is functional, cell-based. As to conditions: B16-F10, 72 h. (Tetrazolium dyes change colour on reduction, which living cells bring about.)
The nature of data set [1]: Antiproliferative activity against human HFL1 cells incubated for 72 hrs by MTT assay. It counts as toxicity, cell-based.
The target of the next data set is Histone deacetylase 1 (Homo sapiens, UniProt Q13547). Kind of data set: Inhibition of HDAC1 derived from human HeLa cell extract using Ac-Leu-Gly-Lys (Ac)-AMC as substrate by fluorescence based assay. It counts as cell-free.
The next data set concerns the target Histone deacetylase 2 (Homo sapiens, UniProt Q92769). As to the kind of experiment: Inhibition of HDAC2 derived from human HeLa cell extract using Ac-Leu-Gly-Lys (Ac)-AMC as substrate by fluorescence based assay.
Another data set has as its target Histone deacetylase 3 (Homo sapiens, UniProt O15379). As to the kind of experiment: Inhibition of HDAC3 derived from human HeLa cell extract using Ac-Leu-Gly-Lys (Ac)-AMC as substrate by fluorescence based assay. It counts as cell-free.
Data set [2] has as its target T1, Protein deacetylase HDAC6 (Homo sapiens, UniProt Q9UBN7).
T1 sequence (Q9UBN7 whole entry): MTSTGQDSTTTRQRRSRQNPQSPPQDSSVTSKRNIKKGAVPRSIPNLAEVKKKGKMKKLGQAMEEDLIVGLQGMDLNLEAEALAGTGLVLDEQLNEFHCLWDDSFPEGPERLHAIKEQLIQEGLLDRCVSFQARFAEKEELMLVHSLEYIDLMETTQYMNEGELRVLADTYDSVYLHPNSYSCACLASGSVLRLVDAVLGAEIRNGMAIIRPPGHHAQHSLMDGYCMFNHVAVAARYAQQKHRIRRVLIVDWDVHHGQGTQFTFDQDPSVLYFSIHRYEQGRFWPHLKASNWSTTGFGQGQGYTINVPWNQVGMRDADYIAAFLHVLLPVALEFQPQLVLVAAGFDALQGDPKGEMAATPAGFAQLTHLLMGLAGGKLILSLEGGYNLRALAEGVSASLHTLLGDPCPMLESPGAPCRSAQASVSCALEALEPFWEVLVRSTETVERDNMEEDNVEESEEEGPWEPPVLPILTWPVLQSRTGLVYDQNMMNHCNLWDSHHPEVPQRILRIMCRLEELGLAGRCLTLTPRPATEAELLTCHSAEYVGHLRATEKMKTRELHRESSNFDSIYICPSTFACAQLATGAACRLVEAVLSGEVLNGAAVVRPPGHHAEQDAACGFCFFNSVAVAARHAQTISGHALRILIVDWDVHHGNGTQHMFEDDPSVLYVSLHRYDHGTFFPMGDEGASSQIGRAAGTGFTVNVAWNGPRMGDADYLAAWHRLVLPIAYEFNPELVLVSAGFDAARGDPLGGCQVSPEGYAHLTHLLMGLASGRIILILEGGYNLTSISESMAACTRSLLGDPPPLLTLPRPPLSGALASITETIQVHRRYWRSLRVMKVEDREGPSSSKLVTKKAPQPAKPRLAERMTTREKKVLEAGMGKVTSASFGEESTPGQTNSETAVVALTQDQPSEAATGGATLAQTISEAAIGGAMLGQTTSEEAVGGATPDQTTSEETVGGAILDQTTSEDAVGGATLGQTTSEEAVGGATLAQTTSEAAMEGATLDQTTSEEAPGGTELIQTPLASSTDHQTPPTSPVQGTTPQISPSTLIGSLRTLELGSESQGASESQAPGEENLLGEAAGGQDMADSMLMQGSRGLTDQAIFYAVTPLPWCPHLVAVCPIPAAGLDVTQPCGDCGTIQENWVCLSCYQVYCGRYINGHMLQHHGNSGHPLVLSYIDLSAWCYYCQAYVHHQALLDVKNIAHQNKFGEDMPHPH
Kind of data set: Inhibition of HDAC6 derived from human HeLa cell extract using Ac-Leu-Gly-Lys (Ac)-AMC as substrate by fluorescence based assay. In kind it is cell-free.

Another data set deals with T2, Histone deacetylase 7 (Homo sapiens, UniProt Q8WUI4).
T2 sequence (Q8WUI4 whole entry): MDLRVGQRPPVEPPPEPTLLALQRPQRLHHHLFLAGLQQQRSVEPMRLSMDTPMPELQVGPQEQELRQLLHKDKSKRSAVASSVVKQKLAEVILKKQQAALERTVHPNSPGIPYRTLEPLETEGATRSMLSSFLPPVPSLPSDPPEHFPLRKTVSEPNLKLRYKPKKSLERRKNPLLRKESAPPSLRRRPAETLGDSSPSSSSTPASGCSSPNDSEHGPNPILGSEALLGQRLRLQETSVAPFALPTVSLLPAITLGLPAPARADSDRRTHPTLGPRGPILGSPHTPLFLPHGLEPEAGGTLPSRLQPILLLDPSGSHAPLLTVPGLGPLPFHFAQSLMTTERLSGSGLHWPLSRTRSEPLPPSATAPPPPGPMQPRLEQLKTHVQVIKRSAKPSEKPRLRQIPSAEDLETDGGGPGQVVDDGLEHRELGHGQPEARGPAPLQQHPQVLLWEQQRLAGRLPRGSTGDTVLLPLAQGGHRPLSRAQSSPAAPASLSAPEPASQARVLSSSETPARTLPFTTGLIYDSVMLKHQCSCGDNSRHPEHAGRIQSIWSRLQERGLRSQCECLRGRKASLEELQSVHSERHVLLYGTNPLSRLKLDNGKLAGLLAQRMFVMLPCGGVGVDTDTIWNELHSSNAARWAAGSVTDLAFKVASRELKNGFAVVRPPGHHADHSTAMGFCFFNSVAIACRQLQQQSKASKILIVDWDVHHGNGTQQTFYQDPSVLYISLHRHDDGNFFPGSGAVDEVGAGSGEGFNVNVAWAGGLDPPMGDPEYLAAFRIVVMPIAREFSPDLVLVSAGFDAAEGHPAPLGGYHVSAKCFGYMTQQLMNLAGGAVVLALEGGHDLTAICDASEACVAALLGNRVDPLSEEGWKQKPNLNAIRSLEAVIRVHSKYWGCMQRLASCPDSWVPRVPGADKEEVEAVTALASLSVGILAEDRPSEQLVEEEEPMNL
As to the kind of experiment: Inhibition of HDAC7 derived from human HeLa cell extract using Ac-Leu-Gly-Lys (Ac)-AMC as substrate by fluorescence based assay. It counts as cell-free.

Another data set deals with MCF7. As to the kind of experiment: cells. As to conditions: Homo sapiens, MCF7, 72 h.
A further data set relates to MDA-MB-231. As to the kind of experiment: cells. As to conditions: Homo sapiens, MDA-MB-231, 72 h.
A further data set concerns A549. As to the kind of experiment: cells. As to conditions: Homo sapiens, A549, 72 h.
The test system of another data set is A2780. Kind of data set: cells. As to conditions: Homo sapiens, A2780, 72 h.

Some results are limits rather than exact numbers.

Histone deacetylase 1, sequence (Q13547 whole entry): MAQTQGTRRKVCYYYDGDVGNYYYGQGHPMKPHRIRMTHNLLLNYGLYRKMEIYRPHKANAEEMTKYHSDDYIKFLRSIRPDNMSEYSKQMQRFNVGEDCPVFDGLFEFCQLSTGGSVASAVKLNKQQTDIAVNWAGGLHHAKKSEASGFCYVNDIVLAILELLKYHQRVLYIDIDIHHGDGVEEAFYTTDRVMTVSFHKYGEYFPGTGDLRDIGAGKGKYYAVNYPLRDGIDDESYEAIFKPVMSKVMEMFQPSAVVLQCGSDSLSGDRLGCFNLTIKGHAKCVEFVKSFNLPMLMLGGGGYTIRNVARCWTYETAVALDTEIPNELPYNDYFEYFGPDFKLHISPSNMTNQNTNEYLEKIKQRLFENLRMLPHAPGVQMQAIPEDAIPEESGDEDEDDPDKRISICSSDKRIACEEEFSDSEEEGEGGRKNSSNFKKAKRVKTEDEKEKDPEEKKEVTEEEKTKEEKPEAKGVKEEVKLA
Histone deacetylase 2, sequence (Q92769 whole entry): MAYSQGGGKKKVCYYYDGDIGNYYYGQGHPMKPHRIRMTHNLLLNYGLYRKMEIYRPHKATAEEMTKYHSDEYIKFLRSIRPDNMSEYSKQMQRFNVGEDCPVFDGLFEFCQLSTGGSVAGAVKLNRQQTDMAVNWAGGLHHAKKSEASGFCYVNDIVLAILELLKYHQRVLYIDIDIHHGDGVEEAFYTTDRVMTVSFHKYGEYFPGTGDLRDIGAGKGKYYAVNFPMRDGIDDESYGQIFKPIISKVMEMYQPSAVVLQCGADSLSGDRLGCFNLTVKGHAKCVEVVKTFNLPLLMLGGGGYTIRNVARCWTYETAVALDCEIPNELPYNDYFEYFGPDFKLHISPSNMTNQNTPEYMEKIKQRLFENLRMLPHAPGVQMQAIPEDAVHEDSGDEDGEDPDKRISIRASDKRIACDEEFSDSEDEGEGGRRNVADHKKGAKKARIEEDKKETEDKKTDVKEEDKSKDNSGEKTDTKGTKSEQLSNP
Histone deacetylase 3, sequence (O15379 whole entry): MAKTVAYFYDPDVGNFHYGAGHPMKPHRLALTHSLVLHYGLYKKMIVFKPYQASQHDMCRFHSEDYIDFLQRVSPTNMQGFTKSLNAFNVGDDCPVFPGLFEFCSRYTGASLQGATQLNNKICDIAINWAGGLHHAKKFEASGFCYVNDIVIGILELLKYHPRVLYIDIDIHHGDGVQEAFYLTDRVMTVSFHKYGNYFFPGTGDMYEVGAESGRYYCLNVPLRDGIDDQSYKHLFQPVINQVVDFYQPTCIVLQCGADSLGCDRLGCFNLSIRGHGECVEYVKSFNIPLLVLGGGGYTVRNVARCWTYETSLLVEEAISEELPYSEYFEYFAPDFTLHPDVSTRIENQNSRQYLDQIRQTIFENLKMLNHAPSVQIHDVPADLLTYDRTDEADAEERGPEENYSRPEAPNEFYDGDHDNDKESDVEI
Description for A2780: Antiproliferative activity against human A2780 cells incubated for 72 hrs by MTT assay
Description for A549: Antiproliferative activity against human A549 cells incubated for 72 hrs by MTT assay
Description for MCF7: Antiproliferative activity against human MCF7 cells incubated for 72 hrs by MTT assay
Description for MDA-MB-231: Antiproliferative activity against human MDA-MB-231 cells incubated for 72 hrs by MTT assay

Consider `C=C(c1ccc(OC)c(O)c1)c1cc(C)nc2ccccc12`, for which the inhibition in vivo at 20 mg/kg in the data set on H22 was determined as 64.1%.
In general, IC50 refers to the concentration that gives 50% inhibition. A high value points to weaker potency. With `C=C(c1ccc(OC)c(OC(C)C(=O)NO)c1)c1cc(C)nc2ccccc12` (stereo not drawn), the IC50 in the data set on K562 amounted to 7 nM; in the data set with B16-F10, 30 nM; on Histone deacetylase 1, 1470 nM; against Histone deacetylase 2, 2320 nM; against Histone deacetylase 3 it was 8910 nM; in data set [2], 4680 nM. Also, the IC50 at Histone deacetylase 7 is more than 10000 nM; in the data set with MCF7, 22 nM; in the data set with MDA-MB-231 it was 28 nM; in the data set on A549, 15 nM; in the data set on A2780, 14 nM. For the same compound, in [1], the IC50 at 72 h was determined as 95 nM.

(Values after ChEMBL document CHEMBL5620374, “Synthesis and bioevaluation of novel stilbene-based derivatives as tubulin/HDAC dual-target inhibitors with potent antitumor activities in vitro and in vivo” (Eur J Med Chem, 2023).)
